Experimental data: PubChem BioAssay (NCI)
Several values for one entry are separate records, joined by “and”; a condition that tells them apart may be missing. Identical values can stand only once.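 Test compounds were applied to cells in 96-well plates for 48 hours at 5 doses. GI50 marks 50% less growth. TGI denotes the concentration required for complete inhibition of growth.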

Experiments:
Experiment in all cases: growth of human tumour cells (NCI), 48 h
A498 renal = system: A498 renal
CAKI-1 renal = system: CAKI-1 renal
HOP-92 NSCLC = system: HOP-92 NSCLC
NCI-H460 lung = system: NCI-H460 lung
PC-3 prostate = system: PC-3 prostate
SF-295 CNS = system: SF-295 CNS
SK-OV-3 ovarian = system: SK-OV-3 ovarian
SN12C renal = system: SN12C renal
SNB-19 CNS = system: SNB-19 CNS
UACC-62 melanoma = system: UACC-62 melanoma

SMILES	GI50 (A498 renal) [µM]	TGI (A498 renal)	GI50 (CAKI-1 renal) [µM]	TGI (CAKI-1 renal) [µM]	GI50 (HOP-92 NSCLC) [µM]	TGI (HOP-92 NSCLC)	GI50 (NCI-H460 lung) [µM]	TGI (NCI-H460 lung)	GI50 (PC-3 prostate) [µM]	TGI (PC-3 prostate) [µM]	GI50 (SF-295 CNS) [µM]	TGI (SF-295 CNS)	GI50 (SK-OV-3 ovarian) [µM]	TGI (SK-OV-3 ovarian)	GI50 (SN12C renal) [µM]	TGI (SN12C renal)	GI50 (SNB-19 CNS) [µM]	TGI (SNB-19 CNS) [µM]	GI50 (UACC-62 melanoma) [µM]	TGI (UACC-62 melanoma)
c1cc(CNC23CC4CC(CC(C4)C2)C3)cc(C[N+](Cc2cccc(CNC34CC5CC(CC(C5)C3)C4)c2)(Cc2cccc(CNC34CC5CC(CC(C5)C3)C4)c2)Cc2cccc(CNC34CC5CC(CC(C5)C3)C4)c2)c1 (centres undefined)	4.98	29.5 µM	5.36	19.6	4.74	12.8 µM	4.97	11.3 µM	5.86	21.6	12.7	43.6 µM	21.4	47.7 µM	5.9	18.5 µM	8.05	30.4	4.86	15.4 µM
COC(=O)C1=CNC=C(C(=O)OC)C1C1=CC(=O)C(C)=CC1=O	13.1	33.6 µM	6.71	19.4	4.65	15.6 µM	14.2	30.5 µM	16.3	30.5	19.7	40.1 µM	17.6	37.3 µM	13	25.8 µM	18.5	36.7	13.6	26.5 µM
C[C@@]12CC=C3c4nc(Nc5cccc(O)c5)sc4CC[C@]3(C)[C@H]1CC[C@]1(C)C(=O)CC[C@@H]21	18	75.8 µM	1.7	3.28	1.93	5.32 µM	2.66	7.25 µM	1.41	7.02	2.49	7.92 µM	4.81	28 µM	–	–	3.88	55.7	2.08	5.25 µM
O=C(N/N=C/c1ccc(Cl)cc1)c1ccc(C(F)(F)F)nc1Nc1cccc(C(F)(F)F)c1	2.24	8.69 µM	2.37	9.88	0.347	2.71 µM	1.66	6.6 µM	2.05	8.03	1.17	4.62 µM	1.85	7.54 µM	1.78	10.6 µM	2.61	13	2.39	6.15 µM
CN1C/C=C\CCOc2cccc(c2)-c2ccnc(n2)Nc2cccc(c2)C1	0.0572	0.156 µM	0.0373	1.52	0.0349	0.227 µM	0.0398	1.14 µM	0.0713	0.435	0.0616	1.1 µM	0.209	2.16 µM	0.0556	1.45 µM	0.057	4.25	0.0259	0.148 µM
CCOC(=O)[C@@H](N)CCC(=O)N[C@@H](CSCc1ccccc1)C(=O)N[C@@H](C(=O)OCC)c1ccccc1	17.2	38.8 µM	22.2	> 53	10.9	24.2 µM	27.1	> 69.8 µM	16.5	37.3	18.3	40.2 µM	16.6	31.5 µM	18	34.9 µM	18.8	38	17.1	33 µM
COC(=O)[C@H](C)NC(=O)NC(=O)NC(=O)CI	15.4	30.4 µM	2.53	6.73	6.79	19.7 µM	20.1	40.8 µM	17.1	32.2	17.4	33.1 µM	19	39.1 µM	19.8	39.3 µM	19.8	43.1	16.8	34.2 µM
Oc1ccccc1C(Sc1nc2ccccc2s1)Sc1nc2ccccc2s1	–	> 100 µM	–	> 100	–	95 µM	–	> 100 µM	–	> 100	–	> 100 µM	–	> 100 µM	–	> 100 µM	–	> 100	–	> 100 µM
COC1=C(C)C(=O)c2c(c(COC(N)=O)c3n2CC2C3N2C)C1=O (centres undefined)	–	0.206 µM	–	0.059	–	0.453 µM	–	–	–	0.244	–	0.0261 µM	–	0.167 µM	–	0.221 µM	–	0.256	–	0.117 µM
O=C(O)C1OC(n2cc(F)c(=O)[nH]c2=O)CC1O (centres undefined)	–	> 100 µM	–	> 100	–	> 51.4 µM	–	> 100 µM	–	> 100	–	> 100 µM	–	> 100 µM	–	> 100 µM	–	> 100	–	> 80.5 µM
Cc1ccc(C(=O)CN(/C=C/C(=O)C(F)(F)F)c2ccc(S(N)(=O)=O)cc2)cc1	> 100	> 100 µM	93	> 100	99.7	> 100 µM	> 100	> 100 µM	59.8	> 100	43.8	> 100 µM	> 100	> 100 µM	> 100	> 100 µM	–	–	> 100	> 100 µM
CN1CCN(CCCOc2ccc3nc(Nc4ccc(Cl)c(C(F)(F)F)c4)ccc3c2)CC1	13.7	28.8 µM	14.9	28.4	5.46	18.8 µM	16.4	39.1 µM	13.3	27.1	14.3	29.7 µM	18.2	33 µM	13.8	30.2 µM	16.2	34.5	16.4	31.7 µM
N=C1C(c2nc3ccccc3s2)=C(O)CN1c1cc(C(F)(F)F)ccc1Cl	24.6	97.9 µM	4.7	40.4	7.69	98.1 µM	13.3	77.9 µM	5.82	49.9	16.2	> 100 µM	51.4	> 100 µM	15.5	69.6 µM	60.6	> 100	5.06	42.7 µM
CN1c2ccc(Cl)cc2C(=O)NC1c1ccc([N+](=O)[O-])s1 (centres undefined)	–	32.8 µM	–	40.7	–	33.1 µM	–	36.4 µM	–	36.1	–	85.7 µM	–	67.2 µM	–	30.9 µM	–	> 100	–	26.3 µM
COC(=O)[C@@H](C)CNS(=O)(=O)N(c1cc(C(F)(F)F)cc(C(F)(F)F)c1)C1CCN(Cc2ccc(F)cc2)CC1	12.8	26.2 µM	7.23	22.3	5.76	20 µM	7.13	22.1 µM	7.61	20.8	10.5	24.5 µM	15.5	29 µM	4.69	18.5 µM	13	25.8	11	24.6 µM
COc1cccc2c1C(=O)c1c(O)c3c(c(O)c1C2=O)C[C@@](O)(C(C)=O)C[C@@H]3OC1OC(C)C(O)C(N)C1Br (some centres undefined)	0.0657	0.532 µM and 0.228 µM	–	0.257	0.0602	0.422 µM and 0.474 µM	–	0.115 µM and 0.118 µM	–	1.03	0.0159	0.419 µM and 0.194 µM	0.0314	0.288 µM and 0.323 µM	0.018	0.307 µM and 1.12 µM	0.025	–	0.0459	0.892 µM and 0.424 µM
COc1cc(/C=C/c2cc(/C=C/c3ccc(O)c(OC)c3)n(C(=O)Nc3ccc(F)c(Cl)c3)n2)ccc1O	0.783	2.1 µM	0.35	4.92	1.03	5.89 µM	–	–	0.365	6.58	0.544	2.6 µM	0.324	1.43 µM	–	–	0.514	2.1	0.452	1.99 µM
OC[C@H]1CCCC1O (some centres undefined)	–	> 100 µM	–	> 100	–	> 100 µM	–	> 100 µM	–	> 100	–	> 100 µM	–	–	–	> 100 µM	–	> 100	–	> 100 µM
COc1ccc(-c2n[nH]nc2-c2cc(OC)c(OC)c(OC)c2)cc1	< 0.01	< 0.0277 µM	< 0.01	> 56.4	< 0.0195	30.6 µM	< 0.01	26.3 µM	0.0638	> 100	< 0.01	> 100 µM	< 0.01	0.44 µM	< 0.01	> 100 µM	–	> 100	< 0.01	24.6 µM
COc1ccccc1CNCCCN1C(=O)c2ccc3c4c(ccc(c24)C1=O)C(=O)N(CCCOCCCCOCCCN)C3=O	1.3	2.7 µM	1.83	5.13	2.1	4.61 µM	0.597	2.17 µM	1.45	5.17	1.42	3.43 µM	2.35	5.76 µM	1.24	2.78 µM	1.71	4.87	0.645	1.96 µM
COC(C(O)CO)C(O)C(O)C(=O)NNc1ccccc1 (centres undefined)	–	> 100 µM	–	> 100	–	> 100 µM	–	> 100 µM	–	> 100	–	> 100 µM	–	> 100 µM	–	> 100 µM	–	> 100	–	> 100 µM
C=C1C(=O)O[C@@H]2/C=C(\C)CC/C=C(/COC(C)=O)C[C@@H](OC(C)=O)[C@@H]12	–	36.6 µM	–	20.2	–	21.1 µM	–	26 µM	–	36.4	–	> 100 µM	–	> 100 µM	–	24.9 µM	–	> 95.9	–	26.4 µM
CC(C)n1nc(-c2cc3cc(O)ccc3[nH]2)c2c(N)ncnc21	0.0194	0.123 µM	0.262	1.77	0.0344	0.483 µM	0.127	9.38 µM	0.086	6.45	0.122	0.87 µM	0.14	0.754 µM	0.175	6.43 µM	1.52	17.9	0.161	0.962 µM
O=S(=O)(N=S(c1ccccc1)c1ccccc1)c1ccccc1	–	> 100 µM	–	–	–	> 100 µM	–	> 100 µM	–	> 100	–	> 100 µM	–	–	–	> 100 µM	–	> 100	–	–
Oc1cccnc1CN1CCCCC1	–	> 100 µM	–	> 100	–	> 100 µM	–	> 100 µM	–	> 100	–	> 100 µM	–	> 100 µM	–	> 100 µM	–	> 100	–	> 100 µM
COc1ccc(Cn2cc3c(c2-c2ccccc2)CC(C)(C)c2cnoc2-3)cc1	1.4	7.72 µM	1.22	> 100	1.96	32.7 µM	2.17	> 100 µM	3.27	> 100	0.732	11.6 µM	4.09	> 100 µM	4.46	> 100 µM	4.96	> 100	0.958	> 100 µM
N#C/C(=C1C=C(Br)/C(=N\O)C=C\1Cl)c1cccc2ccccc12	–	21.5 µM	–	23.4	–	21.9 µM	–	21.4 µM	–	10.9	–	12.3 µM	–	20.3 µM	–	23.2 µM	–	32.1	–	15.8 µM
Cc1cc(S(=O)(=O)Nc2nnc(-c3ccccc3)c(-c3ccccc3)n2)c(SCC(N)=O)cc1Cl	> 100	> 100 µM	> 100	> 100	–	–	36.9	> 100 µM	94.8	> 100	28.5	75 µM	> 100	> 100 µM	62.3	> 100 µM	35.3	> 100	24.6	56.2 µM
CC(=O)CSCc1ccccn1	–	> 100 µM	–	–	–	> 100 µM	–	> 100 µM	–	> 100	–	> 100 µM	–	> 100 µM	–	> 100 µM	–	> 100	–	> 100 µM
